The values below come from PMC5431342, “Discovery of an enzyme and substrate selective inhibitor of ADAM10 using an exosite-binding glycosylated substrate” (Scientific Reports, 2016).

This experiment concerns panel of metzincins. Briefly: Dose response against a panel of metzincins (MMP, meprin, ADAM assays). It is filed as biochemical. Particulars: reordered powder, dilutions starting at 100 µM. As to the method: Powders for 4 compounds (CID # 3117694, 730037, 3153587, and 236330) were reordered from corresponding vendors and tested in 10-point, 1:3 serial dilutions starting at 100 µM in triplicate against ADAM10 and ADAM17 and a panel of metzincins. We examined the activity and selectivity of lead CID 3117694 using an ADAM10 and 17 HPLC-based assays using glycosylated substrate (Fig. 2A).
All assays followed the same general protocol. 5 µL of 2x enzyme solution (5 nM) in assay buffer (50 mM Tricine, 50 mM NaCl, 10 mM CaCl2, 0.05% Brij-35, pH 7.5) were added to solid bottom black 384 plates (Nunc, cat# 264705). Next, test compounds and pharmacological controls were added to corresponding wells using a 384 pin tool device (V&P Scientific, San Diego). […] Reactions were incubated at RT for 1 h, after which the fluorescence was measured using the Synergy H4 multimode microplate reader (Biotek Instruments) (λexcitation = 324 nm, λemission = 390 nm).
Both assays followed the same general protocol. […] After 30 min incubation at RT, the reactions were started by addition of 5 µL of 2x solutions of substrates (20 µM, mepin α Mca-YVADAPK-K(Dnp); and for meprin β Mca-EDEDED-K(Dnp). Reactions were incubated at RT for 1 h, after which the fluorescence was measured using the Synergy H4 multimode microplate reader (Biotek Instruments) (λexcitation = 324 nm, λemission = 390 nm).

Consider `COc1cccc(C(=O)NNC(=O)C(=O)Nc2ccc(C)c(Cl)c2)c1` [CID 3117694], for which the “inhibition of 11 tested metzincins (including ADAM10 and ADAM17)” value was “only ADAM10 was appreciably inhibited”.
